Reference: US8143265B2, “Method of treating atherosclerosis” (Meharry Medical College, priority 2007, dated 2012)

Tests used:
ApoE−/− mice = test: Atherosclerosis development in ApoE−/− mice with oral feeding of 2-AP; format: in vivo, mouse
Experimental: FIG. 1. ApoE^−/− mice at 5 weeks of age were treated with 200 mg/kg BW of 2-AP or equal volume of water as control via gavage feeding. This procedure was repeated once every other day for […]. A. Heart-aorta samples were collected from mice at 6 months of age (n=12 for each group of mice). Sequential 8-μm thick sections were cut from the mouse aortic root. The area (μm^2) of atherosclerotic lesions in the section was measured. B. Aortas from the aortic root to the iliac bifurcation were collected, and the area of atherosclerotic lesions and the total area of the aortic surface were measured, data are expressed as the percent of aortic surface area covered by atherosclerotic lesions. Data are expressed as the mean±SEM. *P<0.05 as compared to untreated control mice. 1. Inhibition of eIF-2α phosphorylation by 2-AP delays the development of atherosclerosis in ApoE^−/− mice: We find that oral feeding of 2-AP reduces the mean size of atherosclerotic lesions in the aorta root and the aorta tree by about 45% and 37%, respectively. […] These findings provide evidence that development of atherosclerosis in ApoE^−/− mice is associated with an increased eIF-2α phosphorylation and that inhibition of eIF-2α phosphorylation via in vivo treatment with 2-AP delays the development of atherosclerosis.

[1] = tested on: mouse peritoneal macrophages; test: E−/B48 lipoprotein-induced foam cell formation, confocal microscopy of DiI and LysoTracker staining; format: cell-based; conditions: MPMs, 20 μg/ml DiI-labeled E−/B48 lipoproteins plus 2 mM 2-AP, 48 hrs
Experimental: FIG. 2. Mouse peritoneal macrophages were treated with 20 μg/ml DiI-labeled E^−/B48 lipoproteins, 20 μg/ml E^−/B48 lipoproteins plus 2 mM 2-AP, or culture medium alone (control) for 48 hrs. The cells were then stained with LysoTracker, which is used to localize lysosomes. Confocal microscopy images were captured, and the merged images are an overlay of the differential interference contrast (DIC) images and the fluorescence images of intracellular DiI and LysoTracker staining. Co-localization of DiI and LysoTracker staining indicates lipoprotein accumulation in the lysosomes. 2. Inhibition of eIF-2α phosphorylation by 2-AP represses E^−/B48 lipoprotein-induced foam cell formation in vitro. We previously reported that incubation of mouse peritonea macrophages (MPMs) with E^−/B48 lipoproteins induces lipid droplet accumulation in the cytoplasm. In some cells, E^−/B48 lipoproteins caused the cytoplasm to be almost entirely accumulated lipids, giving these cells a foam cell like appearance^12. In the present study, we used a confocal microscopy to localize the accumulated lipids in MPMs and to assess the effect of 2-AP on this localization.

eIF-2α phosphorylation = test: E−/B48 lipoprotein-induced eIF2α phosphorylation in MPMs; format: cell-based, mouse; conditions: addition to culture medium or transfection, data not shown
From the text: 3. ApoE-deficient lipoproteins induce eIF-2α phosphorylation. […] We also observed that addition of 2-AP to culture medium or transfection of a nonphosphorylatable eIF2α mutant to MPMs attenuated E^−/B48 lipoprotein-induced eIF2α phosphorylation (not shown).

[2] = tested on: mouse peritoneal macrophages; test: E−/B48 lipoprotein degradation and lipoprotein and cholesterol ester accumulation in MPMs; format: cell-based; conditions: addition to culture medium or transfection, data not shown
From the text: 4. Inhibition of eIF-2α phosphorylation increases macrophage lipoprotein degradation, and suppresses cholesterol ester and lipoprotein accumulation in macrophages. We observed that E^−/B48 lipoproteins induced a time-related accumulation of cholesterol ester and lipoproteins in MPMs, which is associated with a reduced degradation rate of E^−/B48 lipoproteins. The addition of 2-AP to culture medium or transfection of a nonphosphorylatable eIF-2α mutant to MPMs enhances E^−/B48 lipoprotein degradation, and reduces E^−/B48 lipoprotein and cholesterol ester accumulation (data not shown).

[3] = tested on: lysosomal hydrolases, including cathepsin B and lysosomal acid lipase; test: E−/B48 lipoprotein-induced suppression of lysosomal hydrolases in MPMs; format: cell-based, mouse; conditions: data not shown
From the text: 5. Inhibition of eIF-2α phosphorylation attenuates E^−/B48 lipoprotein-induced suppressive effect on lysosomal hydrolases. […] We also observed that 2-AP and the nonphosphorylatable eIF-2α mutant attenuated the suppressive effect of E^−/B48 lipoproteins on lysosomal hydrolases (data not shown). It is highly likely that E^−/B48 lipoprotein-induced eIF-2α phosphorylation down-regulates macrophage lysosomal hydrolases, which in turn reduces the degradation of the lipid and protein components of E^−/B48 lipoproteins, leading to lipoprotein accumulation in the lysosomes and triggering foam cell formation.

mRNA translation = test: E−/B48 lipoprotein-induced suppression of mRNA translation; format: cell-based; conditions: data not shown
From the text: 6. Inhibition of eIF-2α phosphorylation attenuates E^−/B48 lipoprotein-induced suppression on mRNA translation. We observed that E^−/B48 lipoproteins reduced lysosomal hydrolases, due mainly to suppressing the translation of mRNAs encoding these proteins, and that 2-AP attenuated the suppressive effect of E^−/B48 lipoproteins on mRNA translation (data not shown).

[4] = ApoE−/− mice, 200 mg/kg BW 2-AP by gavage once every other day for 24 weeks, vs untreated control
[5] = ApoE−/− mice, 200 mg/kg BW once every other day for 24 weeks, 6-hr fasting

Question: What does the source list for `Nc1ncc2[nH]cnc2n1` [2-AP, 7H-purin-2-amine]?
Answer: body weight (ApoE−/− mice; 2-AP treatment of ApoE−/− mice): did not alter; food intake (ApoE−/− mice; 2-AP treatment of ApoE−/− mice): did not alter; advanced lesions (e.g., fibrous caps and acellular areas) (ApoE−/− mice; 2-AP-treated ApoE−/− mice): reduced markedly; reduction of mean size of atherosclerotic lesions in the aorta root (ApoE−/− mice; [4]): about 45%; reduction of mean size of atherosclerotic lesions in the aorta tree (ApoE−/− mice; [4]): ~37%; plasma glucose levels (ApoE−/− mice; [5]): did not alter; plasma insulin levels (ApoE−/− mice; [5]): did not alter; plasma lipid levels (ApoE−/− mice; [5]): did not alter; phosphorylated eIF-2α immunostaining in the atherosclerotic lesions (ApoE−/− mice; immunohistology, 2-AP-treated vs untreated ApoE−/− mice): significantly reduced; level of staining with DiI (intralysosomal lipid accumulation) [1]: markedly reduced; E−/B48 lipoprotein-induced eIF2α phosphorylation (eIF-2α phosphorylation): attenuated; E−/B48 lipoprotein accumulation [2]: reduces; E−/B48 lipoprotein degradation [2]: enhances; cholesterol ester accumulation [2]: reduces; suppressive effect of E−/B48 lipoproteins on lysosomal hydrolases [3]: attenuated; suppressive effect of E−/B48 lipoproteins on mRNA translation (mRNA translation): attenuated
